Assay results from patent US11266715B2, “C3A receptor agonists for use against ischemic brain injury, stroke, traumatic brain injury, spinal cord injury and neurodegenerative disorders” (priority 2016, dated 2022).

What was measured:
[1] = system: cultured primary astrocytes; settings: cited from earlier work
[2] = system: synapsin I+ puncta; assay: Synapsin I immunostaining of cortex 21 days after stroke; type: in vivo, mouse; settings: for larger size of synapsin I+ puncta vs PBS-treated mice: ipsilesional motor cortex
Method: For immunofluorescent evaluation, sections were deparaffinized, heated three times for 5 min in a microwave oven in 0.01 M citric buffer (pH 6.0), and blocked in PBS containing 0.05% Tween-20 (Sigma) and 1% in Bovine serum albumin (BSA, Sigma) for GAP-43 and synapsin I staining, 3% normal goat serum for VGLUT1 staining or 4% normal donkey serum for GAP-43 double stainings. Goat anti-synapsin la/b antibody (1:150; Santa Cruz, sc-7379) was followed by biotin-conjugated donkey anti-goat immunoglobulin (Ig) secondary antibody (1:200; Jackson Research Lab, 705-065-147) and Cy3-conjugated streptavidin (1:100; Sigma). Guinea pig anti-VGLUT1 (1:500; Millipore, AB5905) was followed by Alexa Fluor 488 goat anti-guinea pig Ig (1:500; Molecular Probes, A11073). For single staining, mouse anti-GAP-43 antibody (1:1000; Millipore, MAB347), was followed by biotinylated rabbit anti-mouse Ig secondary antibody (1:200; Dako, E0354) and Cy3-conjugated streptavidin (1:100; Sigma). […]
Highest signal intensity single plane images of immunostained sections were obtained by laser scanning confocal microscope (LSM TCS SP2, Leica Microsystems, ×63/NA 1.3 objective for synapsin I and GAP-43; and LSM 700, Carl Zeiss for VGLUT1 ×40/NA 1.3) at 1024×1024 pixels resolution. […] Three standard sections per animal in 160 μm intervals were analysed. […]
Single-stained images were analysed using MetaMorph® software (Molecular Devices, ver. 2.8.5) to obtain number, average size and intensity of positive punctuate structures per image. […] An experimenter blinded to experimental group performed all image acquisitions and quantifications.

Substance: C3a: Purified human C3a peptide (Complement Technologies), C3a receptor agonist, amino acid sequence SEQ ID NO: 1
- ischemia-induced upregulation of GFAP ([1]; cultured primary astrocytes, C3aR-dependent): attenuated ischemia-induced upregulation of GFAP
- survival of astrocytes ([1]; in vitro ischemia model): increased the survival of astrocytes
- increase in density of synapsin I+ puncta ([2]; contralesional somatosensory cortex, P=0.030): 20%
- larger size of synapsin I+ puncta vs PBS-treated mice ([2]; deep layers, P<0.0001): 8.1%
- larger size of synapsin I+ puncta vs PBS-treated mice ([2]; superficial layers, P=0.0004): 9.7%
